Measurements as given in PubChem BioAssay (NCI).
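Grown in 96-well plates, cells were treated for 48 hours with each compound at five concentrations. Insufficient inhibition: endpoint recorded as highest concentration tested. Here, GI50 denotes the concentration required for 50% inhibition of growth. TGI: concentration producing complete growth inhibition.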

Legend:
Assay in all cases: inhibition of tumour cell growth, NCI panel, 48 h
[1] = test system: SW-620 colon
[2] = test system: NCI/ADR-RES ovarian
[3] = test system: COLO 205 colon
[4] = test system: SNB-75 CNS
[5] = test system: BT-549 breast
[6] = test system: MDA-MB-231 breast
[7] = test system: DU-145 prostate
[8] = test system: HOP-62 NSCLC
[9] = test system: OVCAR-3 ovarian
[10] = test system: HOP-92 NSCLC
[11] = test system: SR leukemia
[12] = test system: OVCAR-4 ovarian
[13] = test system: HT29 colon
[14] = test system: MCF7 breast
[15] = test system: NCI-H226 lung
[16] = test system: CAKI-1 renal
[17] = test system: U251 CNS
[18] = test system: TK-10 renal
[19] = test system: PC-3 prostate
[20] = test system: HCC-2998 colon
[21] = test system: CCRF-CEM leukemia
[22] = test system: MOLT-4 leukemia
[23] = test system: SF-295 CNS
[24] = test system: SF-539 CNS
[25] = test system: HCT-15 colon
[26] = test system: NCI-H23 lung
[27] = test system: 786-0 renal
[28] = test system: KM12 colon
[29] = test system: T-47D breast
[30] = test system: SK-MEL-5 melanoma
[31] = test system: OVCAR-8 ovarian
[32] = test system: RXF 393 renal
[33] = test system: A549 NSCLC
[34] = test system: NCI-H522 lung
[35] = test system: K-562 leukemia
[36] = test system: SN12C renal
[37] = test system: ACHN renal
[38] = test system: SK-OV-3 ovarian
[39] = test system: MDA-MB-435
[40] = test system: HL-60(TB) leukemia
[41] = test system: EKVX NSCLC
[42] = test system: SK-MEL-28 melanoma
[43] = test system: UO-31 renal
[44] = test system: M14 melanoma
[45] = test system: OVCAR-5 ovarian
[46] = test system: UACC-257 melanoma
[47] = test system: IGROV1 ovarian
[48] = test system: SNB-19 CNS
[49] = test system: HS 578T breast
[50] = test system: MDA-MB-468 breast
[51] = test system: UACC-62 melanoma
[52] = test system: MALME-3M melanoma
[53] = test system: SK-MEL-2 melanoma
[54] = test system: LOX IMVI melanoma
[55] = test system: NCI-H460 lung
[56] = test system: SF-268 CNS
[57] = test system: A498 renal
[58] = test system: RPMI-8226 leukemia
[59] = test system: HCT-116 colon

`O=C(CSc1nc2ccccc2c(=O)n1-c1ccc(Cl)cc1)Nc1ccc(-c2nc3ccc([N+](=O)[O-])cc3[nH]2)cc1` gave a GI50 [1] of 3.52 µM, a TGI [1] of 74.1 µM and a GI50 [2] of 5.29 µM. For the same compound, the TGI [2] was greater than 100 µM, the GI50 [3] was 2.34 µM and the TGI [3] was 6.07 µM. It also gave a GI50 [4] of 2.03 µM, a TGI [4] of 8.21 µM and a GI50 [5] of 1.84 µM. The TGI [5] was 6.61 µM, the GI50 [6] was 1.82 µM and the TGI [6] was 4.62 µM. It also gave a GI50 [7] of 3.79 µM, a TGI [7] greater than 100 µM and a GI50 [8] of 1.26 µM. For the same compound, the TGI [8] was 3 µM, the GI50 [9] was 2.53 µM and the TGI [9] was 7.43 µM. The GI50 [10] was 1.75 µM, the TGI [10] was 6.07 µM and the GI50 [11] was 2.16 µM. It also gave a TGI [11] of 24.1 µM, a GI50 [12] of 1.59 µM and a TGI [12] of 5.11 µM. It also gave a GI50 [13] of 2.83 µM, a TGI [13] of 11.4 µM and a GI50 [14] of 1.18 µM. For the same compound, the TGI [14] was 5.09 µM, the GI50 [15] was 1.77 µM and the TGI [15] was 4.04 µM. It also gave a GI50 [16] of 12 µM, a TGI [16] greater than 100 µM and a GI50 [17] of 1.59 µM. The TGI [17] was 3.58 µM, the GI50 [18] was 3.61 µM and the TGI [18] was 20.5 µM. For the same compound, the GI50 [19] was 1.79 µM, the TGI [19] was 7.01 µM and the GI50 [20] was 2.95 µM. For the same compound, the TGI [20] was 15.2 µM, the GI50 [21] was 13.5 µM and the TGI [21] was greater than 100 µM. For the same compound, the GI50 [22] was 3.21 µM, the TGI [22] was greater than 100 µM and the GI50 [23] was 1.73 µM. For the same compound, the TGI [23] was 4.56 µM, the GI50 [24] was 1.9 µM and the TGI [24] was 4.06 µM. For the same compound, the GI50 [25] was 2.77 µM, the TGI [25] was greater than 100 µM and the GI50 [26] was 1.8 µM. For the same compound, the TGI [26] was 5.36 µM, the GI50 [27] was 2.91 µM and the TGI [27] was 8.4 µM. It also gave a GI50 [28] of 10.2 µM, a TGI [28] greater than 100 µM and a GI50 [29] of 1.41 µM. For the same compound, the TGI [29] was 3.56 µM, the GI50 [30] was 3.01 µM and the TGI [30] was 11.7 µM. It also gave a GI50 [31] of 1.08 µM, a TGI [31] of 2.75 µM and a GI50 [32] of 1.5 µM. The TGI [32] was 3.69 µM, the GI50 [33] was 1.88 µM and the TGI [33] was 6.81 µM. The GI50 [34] was 1.82 µM, the TGI [34] was 4.65 µM and the GI50 [35] was 2.63 µM. For the same compound, the TGI [35] was greater than 100 µM, the GI50 [36] was 1.58 µM and the TGI [36] was 4.21 µM. It also gave a GI50 [37] of 3.1 µM, a TGI [37] of 21.2 µM and a GI50 [38] of 2.82 µM. It also gave a TGI [38] of 32.7 µM, a GI50 [39] of 2.98 µM and a TGI [39] of 13.1 µM. It also gave a GI50 [40] of 28.1 µM, a TGI [40] greater than 100 µM and a GI50 [41] of 1.91 µM. The TGI [41] was 5.7 µM, the GI50 [42] was 1.72 µM and the TGI [42] was 3.87 µM. For the same compound, the GI50 [43] was 30 µM, the TGI [43] was greater than 100 µM and the GI50 [44] was 2.32 µM. For the same compound, the TGI [44] was 8.05 µM, the GI50 [45] was 2.65 µM and the TGI [45] was 20.5 µM. For the same compound, the GI50 [46] was 1.69 µM, the TGI [46] was 4.95 µM and the GI50 [47] was 1.87 µM. The TGI [47] was 5 µM, the GI50 [48] was 2.33 µM and the TGI [48] was 8.77 µM. For the same compound, the GI50 [49] was 1.6 µM, the TGI [49] was 4.57 µM and the GI50 [50] was 1.4 µM. It also gave a TGI [50] of 3.2 µM, a GI50 [51] of 1.76 µM and a TGI [51] of 4.78 µM. The GI50 [52] was 2.18 µM, the TGI [52] was 7.44 µM and the GI50 [53] was 1.95 µM. The TGI [53] was 5.31 µM, the GI50 [54] was 1.44 µM and the TGI [54] was 3.04 µM. The GI50 [55] was 1.56 µM, the TGI [55] was 3.9 µM and the GI50 [56] was 4.62 µM. The TGI [56] was greater than 100 µM, the GI50 [57] was 3.23 µM and the TGI [57] was 12.9 µM. It also gave a GI50 [58] of 4.4 µM, a TGI [58] greater than 100 µM and a GI50 [59] of 2.9 µM. The TGI [59] was greater than 100 µM.
